Test results published in patent US12448394B2, “Heterocyclic pyrazole derivatives as type III receptor tyrosine kinase inhibitors” (DEVELOPMENT CENTER FOR BIOTECHNOLOGY, priority 2019, dated 2025).

Experiments:
[1] = biological target: T1, PDGFRα kinase (Homo sapiens, UniProt P16234); test: PDGFRα kinase assay (AlphaScreen); type: biochemical; conditions: read-out: Ranking of IC50 values, PDGFRα
T1 construct: purchased SignalChem
In short: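 IC50 values came from duplicate serial dilutions, with product read by AlphaScreen. The reaction ran 30 min at 30 °C, then EDTA stop: 1.5 ng recombinant enzyme, biotin-poly(Glu4:Tyr1) substrate, 10 μM ATP, 10 mM MOPS pH 7.0, 10 mM MgCl2.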

[2] = tested on: phosphorylation of FLT3 and its down-stream effector STAT5; test: Western blotting of p-FLT3 and p-STAT5 in MV4-11 cells; type: cell-based; conditions: Homo sapiens; at 30 nM treatment, 3 hours, FLT3-ITD positive MV4-11 leukemia cells; read-out: inhibition activity against phosphorylation of FLT3 and its down-stream effector STAT5
Experimental: The potent compounds of formula (I) in EXAMPLE 2 were evaluated, by western blotting assay, for their cellular potencies against phosphorylation of FLT3 and its down-stream effector STAT5 in MV4-11 leukemia cell line with constitutive activation of FLT3 signaling. For western blotting experiments, MV4-11 cells were cultured in IMDM medium containing 0.1% FBS overnight. On the assay day, three million cells were treated with or without compounds for 3 hours in 15 mL tubes. Then, the whole cell lysates were harvested, following extraction by adding 2×SDS Sample Buffer and boiling on hot plate at 105° C. for 15 minutes. The resulting cell lysates were separated by SDS-PAGE electrophoresis and transferred to PVDF membrane. Protein expression was detected using immunoblot with corresponding primary antibody and secondary antibody following the standard procedures. Antibody against p-FLT3 (Tyr-591), anti-rabbit IgG HRP-linked secondary antibody, and anti-mouse IgG HRP-linked secondary antibody were purchased from Cell Signaling Technology. Antibody against p-STAT5 (Tyr-694) was purchased from BD biosciences. Antibody against actin was purchased from R&D system. […] Band intensities of western blot were also quantified by ChemiDoc™ MP Imaging System. Relative intensities of bandscorresponding to drug treatments at a single concentration (30 nM) were compared to the DMSO control group. The percentage (%) inhibition at each drug concentration was calculated using the formula: Percentage(%)inhibition=(1−Relative intensity)×100.

[3] = biological target: T2, FLT3 kinase (Homo sapiens, UniProt P36888); test: FLT3 kinase assay (AlphaScreen); type: biochemical; conditions: read-out: Ranking of IC50 values, FLT3
T2 construct: purchased SignalChem
T2 sequence (P36888 27-993): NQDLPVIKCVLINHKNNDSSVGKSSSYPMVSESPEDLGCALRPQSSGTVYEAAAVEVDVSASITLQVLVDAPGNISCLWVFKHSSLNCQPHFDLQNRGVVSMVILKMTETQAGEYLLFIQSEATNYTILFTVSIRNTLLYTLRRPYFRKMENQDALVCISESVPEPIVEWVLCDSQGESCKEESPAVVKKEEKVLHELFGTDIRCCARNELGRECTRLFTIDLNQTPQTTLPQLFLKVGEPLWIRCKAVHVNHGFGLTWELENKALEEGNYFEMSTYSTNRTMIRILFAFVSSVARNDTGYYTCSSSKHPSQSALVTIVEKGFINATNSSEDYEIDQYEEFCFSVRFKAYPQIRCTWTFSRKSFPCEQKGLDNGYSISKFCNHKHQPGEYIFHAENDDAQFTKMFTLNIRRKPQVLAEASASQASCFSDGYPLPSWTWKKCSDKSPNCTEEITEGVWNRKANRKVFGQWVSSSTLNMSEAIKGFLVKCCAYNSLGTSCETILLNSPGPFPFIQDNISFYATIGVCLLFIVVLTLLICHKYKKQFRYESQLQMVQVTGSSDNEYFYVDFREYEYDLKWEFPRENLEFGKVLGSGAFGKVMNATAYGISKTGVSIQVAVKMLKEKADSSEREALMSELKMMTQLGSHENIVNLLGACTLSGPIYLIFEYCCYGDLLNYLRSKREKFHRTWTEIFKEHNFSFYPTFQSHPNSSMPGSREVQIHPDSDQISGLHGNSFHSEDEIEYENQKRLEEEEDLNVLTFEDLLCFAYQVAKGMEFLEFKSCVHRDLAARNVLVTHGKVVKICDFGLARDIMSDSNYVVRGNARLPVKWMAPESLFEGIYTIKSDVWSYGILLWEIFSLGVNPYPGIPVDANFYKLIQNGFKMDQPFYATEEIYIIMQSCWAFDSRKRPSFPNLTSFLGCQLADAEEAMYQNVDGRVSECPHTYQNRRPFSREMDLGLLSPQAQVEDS
In short: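 AlphaScreen detection of biotin-poly(Glu4:Tyr1) phosphorylation by 1.5 ng recombinant FLT3 (10 μM ATP, pH 7.0 MOPS, 10 mM MgCl2; 30 °C, 30 min, EDTA quench). IC50 values derived from serially diluted compound tested in duplicate.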

T1 sequence (P16234 24-1089): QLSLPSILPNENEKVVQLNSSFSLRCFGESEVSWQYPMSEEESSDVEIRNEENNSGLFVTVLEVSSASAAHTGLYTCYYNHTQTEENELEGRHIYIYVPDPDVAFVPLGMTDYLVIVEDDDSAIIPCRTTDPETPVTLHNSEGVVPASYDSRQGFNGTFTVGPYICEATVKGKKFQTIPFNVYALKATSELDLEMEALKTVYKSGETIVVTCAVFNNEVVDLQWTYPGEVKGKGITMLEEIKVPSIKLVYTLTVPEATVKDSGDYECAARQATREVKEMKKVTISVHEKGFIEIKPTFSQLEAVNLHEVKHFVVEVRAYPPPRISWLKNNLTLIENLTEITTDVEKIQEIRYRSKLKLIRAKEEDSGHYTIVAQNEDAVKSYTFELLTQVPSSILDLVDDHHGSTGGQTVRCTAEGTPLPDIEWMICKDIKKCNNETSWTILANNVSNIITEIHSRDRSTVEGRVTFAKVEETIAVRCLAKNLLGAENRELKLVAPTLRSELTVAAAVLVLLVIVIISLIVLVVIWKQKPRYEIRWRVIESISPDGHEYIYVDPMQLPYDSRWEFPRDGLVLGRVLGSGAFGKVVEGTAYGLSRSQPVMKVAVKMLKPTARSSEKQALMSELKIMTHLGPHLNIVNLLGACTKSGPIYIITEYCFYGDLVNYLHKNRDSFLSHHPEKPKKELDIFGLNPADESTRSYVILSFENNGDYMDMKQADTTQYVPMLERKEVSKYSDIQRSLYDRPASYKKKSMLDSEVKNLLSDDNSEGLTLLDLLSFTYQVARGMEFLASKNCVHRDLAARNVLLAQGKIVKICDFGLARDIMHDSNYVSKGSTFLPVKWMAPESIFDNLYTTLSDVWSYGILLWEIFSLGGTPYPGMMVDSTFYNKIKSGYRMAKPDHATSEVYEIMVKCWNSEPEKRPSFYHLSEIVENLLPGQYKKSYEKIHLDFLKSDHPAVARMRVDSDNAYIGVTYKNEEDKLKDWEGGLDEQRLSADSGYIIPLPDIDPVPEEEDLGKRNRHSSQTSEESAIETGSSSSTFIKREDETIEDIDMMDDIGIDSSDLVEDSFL

Structure (SMILES)	IC50 [1] [nM]	inhibition at 0.03 µM [2] [%]	IC50 [3] [nM]
Cn1ncc2ccc(-c3n[nH]c4c3Cc3sc(-c5ccc(CN6CCOCC6)cc5F)cc3-4)cc21 [Compound 32, 4-(3-fluoro-4-(3-(1-methyl-1H-indazol-6-yl)-1,4-dihydrothieno [2′,3′:4,5]cyclopenta [1,2-c]pyrazol-6-yl)benzyl)morpholine]	10 to 30	> 50	< 1
Cc1ccc(-c2cc3c(s2)Cc2c(-c4ccc5cnn(C)c5c4)n[nH]c2-3)cn1 [Compound 33, 3-(1-methyl-1H-indazol-6-yl)-6-(6-methylpyridin-3-yl)-1,4-dihydrothieno [2′,3′:4,5]cyclopenta [1,2-c]pyrazole]	1 to 10	> 50	< 1
Cn1ncc2ccc(-c3n[nH]c4c3Cc3sc(-c5ccc(C(=O)N6CCCCC6)cc5)cc3-4)cc21 [Compound 34, (4-(3-(1-methyl-1H-indazol-6-yl)-1,4-dihydro-thieno[2′,3′:4,5]cyclopenta [1,2-c]pyrazol-6-yl)phenyl)(piperidin-1-yl) methanone]	30 to 100	> 50	1 to 10
Cn1ncc2ccc(-c3n[nH]c4c3Cc3sc(-c5cccc(C(=O)N6CCOCC6)c5)cc3-4)cc21 [Compound 37, (3-(3-(1-methyl-1H-indazol-6-yl)-1,4-dihydro-thieno[2′,3′:4,5]cyclopenta [1,2-c]pyrazol-6-yl)phenyl)(morpholino) methanone]	1 to 10	> 50	1 to 10
Cn1ncc2ccc(-c3n[nH]c4c3Cc3sc(-c5ccc(C(=O)N6CCCC6)cc5)cc3-4)cc21 [Compound 38, (4-(3-(1-methyl-1H-indazol-6-yl)-1,4-dihydro-thieno[2′,3′:4,5]cyclopenta [1,2-c]pyrazol-6-yl)phenyl)(pyrrolidin-1-yl) methanone]	10 to 30	> 50	1 to 10
Cn1ncc2ccc(-c3n[nH]c4c3Cc3sc(-c5ccc(CN6CCSCC6)cc5)cc3-4)cc21 [Compound 39, 3-(1-methyl-1H-indazol-6-yl)-6-(4-(thiomorpho-linomethyl)phenyl)-1,4-dihydrothieno[2′,3′:4,5] cyclopenta[1,2-c]pyrazole]	10 to 30	> 50	1 to 10
Cn1ncc2ccc(-c3n[nH]c4c3Cc3sc(-c5cnc(C(=O)N6CCOCC6)nc5)cc3-4)cc21 [Compound 41, (5-(3-(1-methyl-1H-indazol-6-yl)-1,4-dihydrothieno[2′,3′:4,5]cyclopenta[1,2-c]pyrazol-6-yl)pyrimidin-2-yl) (morpholino)methanone]	10 to 30	> 50	< 1
CC(C)n1ncc2ccc(-c3n[nH]c4c3Cc3sc(-c5ccc(CN6CCOCC6)cc5)cc3-4)cc21 [Compound 42, 4-(4-(3-(1-isopropyl-1H-indazol-6-yl)-1,4-dihydro-thieno[2′,3′:4,5]cyclopenta [1,2-c]pyrazol-6-yl)benzyl)morpholine]	10 to 30	> 50	< 1
COc1cc(-c2cc3c(s2)Cc2c(-c4ccc5cnn(C)c5c4)n[nH]c2-3)ccc1C(=O)N1CCOCC1 [Compound 43, (2-methoxy-4-(3-(1-methyl-1H-indazol-6-yl)-1,4-dihydrothieno [2′,3′:4,5]cyclopenta [1,2-c]pyrazol-6-yl)phenyl)(morpholino) methanone]	1 to 10	> 50	1 to 10
Cn1ncc2ccc(-c3n[nH]c4c3Cc3sc(-c5ccc(C(=O)N6CCOCC6)c(F)c5)cc3-4)cc21 [Compound 44, (2-fluoro-4-(3-(1-methyl-1H-indazol-6-yl)-1,4-dihydrothieno[2′,3′:4,5]cyclopenta[1,2-c]pyrazol-6-yl)phenyl)(morpholino) methanone]	1 to 10	> 50	< 1
Cn1ncc2ccc(-c3n[nH]c4c3Cc3sc(-c5cnc(N)nc5)cc3-4)cc21 [Compound 45, 5-(3-(1-methyl-1H-indazol-6-yl)-1,4-dihydrothieno [2′,3′:4,5]cyclopenta[l,2-c]pyrazol-6-yl)pyrimidin-2-amine]	10 to 30	> 50	< 1
Cn1cc(-c2cc3c(s2)Cc2c(-c4ccc5cnn(C)c5c4)n[nH]c2-3)cc1C(=O)N1CCOCC1 [Compound 46, (1-methyl-4-(3-(1-methyl-1H-indazol-6-yl)-1,4-dihydrothieno[2′,3′:4,5]cyclopenta[1,2-c]pyrazol-6-yl)-1H-pyrrol-2-yl) (morpholino)methanone]	1 to 10	> 50	< 1
Cn1ncc2ccc(-c3n[nH]c4c3Cc3sc(-c5ccc(S(=O)(=O)N6CCOCC6)cc5)cc3-4)cc21 [Compound 47, 4-((4-(3-(1-methyl-1H-indazol-6-yl)-1,4-dihydro-thieno[2′,3′:4,5]cyclopenta [1,2-c]pyrazol-6-yl)phenyl)sulfonyl) morpholine]	1 to 10	> 50	< 1
Cn1ncc2ccc(-c3n[nH]c4c3Cc3sc(-c5csc(C(=O)N6CCOCC6)c5)cc3-4)cc21 [Compound 48, (4-(3-(1-methyl-1H-indazol-6-yl)-1,4-dihydro-thieno[2′,3′:4,5]cyclopenta [1,2-c]pyrazol-6-yl)thiophen-2-yl) (morpholino)methanone]	1 to 10	> 50	< 1
CN(C)C(=O)c1ccc(-c2cc3c(s2)Cc2c(-c4ccc5cnn(C)c5c4)n[nH]c2-3)cc1 [Compound 49, N,N-dimethyl-4-(3-(1-methyl-1H-indazol-6-yl)-1,4-dihydrothieno [2′,3′:4,5]cyclopenta [1,2-c]pyrazol-6-yl) benzamide]	1 to 10	> 50	< 1
CN(C)S(=O)(=O)c1ccc(-c2cc3c(s2)Cc2c(-c4ccc5cnn(C)c5c4)n[nH]c2-3)cc1 [Compound 50, N,N-dimethyl-4-(3-(1-methyl-1H-indazol-6-yl)-1,4-dihydrothieno [2′,3′:4,5]cyclopenta [1,2-c]pyrazol-6-yl) benzenesulfonamide]	10 to 30	> 50	< 1
Cn1ncc2ccc(-c3n[nH]c4c3Cc3sc(-c5ccc(CN6CCOCC6)s5)cc3-4)cc21 [Compound 51, 4-((5-(3-(1-methyl-1H-indazol-6-yl)-1,4-dihydro-thieno[2′,3′:4,5]cyclopenta [1,2-c]pyrazol-6-yl)thiophen-2-yl)methyl) morpholine]	10 to 30	> 50	< 1
Cn1ncc2ccc(-c3n[nH]c4c3Cc3sc(-c5csc(CN6CCOCC6)c5)cc3-4)cc21 [Compound 52, 4-((4-(3-(1-methyl-1H-indazol-6-yl)-1,4-dihydro-thieno[2′,3′:4,5]cyclopenta [1,2-c]pyrazol-6-yl)thiophen-2-yl)methyl) morpholine]	10 to 30	> 50	< 1
